Key:
[1] = Safety and reactogenicity monitoring in neonatal/infant rhesus macaques; assay type: in vivo, rhesus macaques (Macaca mulatta)
Method: In vivo neonatal and infant rhesus macaque vaccination studies. Rhesus macaques (Indian origin Macaca mulatta) were obtained from the TNPRC specific pathogen-free breeding colony. Upon identification, pregnant dams were transferred to an indoor social group to allow for monitoring and delivery of infants. At birth, neonatal rhesus macaques (<24 hours of age) were enrolled into the longitudinal immunization study. Exclusion criteria were, a) maternal fever (≥40° C.) during infant exam on DOL0, b) birth weight<400 g, c) clinical signs of neonatal infection (e.g. infant temperature […]; nasal, ocular discharge; respiratory distress, cardiovascular instability), d) congenital defects (e.g. abnormal digits, omphalocele) and/or e) abnormal cling. Animals were group-housed in dam/infant pairs with a maximum of 4 pairs (8 animals) together. […] Standard physiological safety parameters, extrapolated from human infant clinical trials of PCV (28), included temperature and weight (normalized to Tulane National Primate Research Center reference standard for rhesus macaques), which were recorded at multiple time-points at observation/sample-acquisition, as well as local signs of reactogenicity such as leg circumference pre/post-immunization and photographic documentation of erythema (Table 4). […]

human TLR8 = biological target: T1, human TLR8 (Homo sapiens, UniProt Q9NR97); details: HEK293 cells stably expressing human TLR8 (ref. 24); cited from earlier work
T1 construct: host or cells: HEK293 with NF-kB-responsive SEAP reporter
T1 sequence (Q9NR97 27-1041): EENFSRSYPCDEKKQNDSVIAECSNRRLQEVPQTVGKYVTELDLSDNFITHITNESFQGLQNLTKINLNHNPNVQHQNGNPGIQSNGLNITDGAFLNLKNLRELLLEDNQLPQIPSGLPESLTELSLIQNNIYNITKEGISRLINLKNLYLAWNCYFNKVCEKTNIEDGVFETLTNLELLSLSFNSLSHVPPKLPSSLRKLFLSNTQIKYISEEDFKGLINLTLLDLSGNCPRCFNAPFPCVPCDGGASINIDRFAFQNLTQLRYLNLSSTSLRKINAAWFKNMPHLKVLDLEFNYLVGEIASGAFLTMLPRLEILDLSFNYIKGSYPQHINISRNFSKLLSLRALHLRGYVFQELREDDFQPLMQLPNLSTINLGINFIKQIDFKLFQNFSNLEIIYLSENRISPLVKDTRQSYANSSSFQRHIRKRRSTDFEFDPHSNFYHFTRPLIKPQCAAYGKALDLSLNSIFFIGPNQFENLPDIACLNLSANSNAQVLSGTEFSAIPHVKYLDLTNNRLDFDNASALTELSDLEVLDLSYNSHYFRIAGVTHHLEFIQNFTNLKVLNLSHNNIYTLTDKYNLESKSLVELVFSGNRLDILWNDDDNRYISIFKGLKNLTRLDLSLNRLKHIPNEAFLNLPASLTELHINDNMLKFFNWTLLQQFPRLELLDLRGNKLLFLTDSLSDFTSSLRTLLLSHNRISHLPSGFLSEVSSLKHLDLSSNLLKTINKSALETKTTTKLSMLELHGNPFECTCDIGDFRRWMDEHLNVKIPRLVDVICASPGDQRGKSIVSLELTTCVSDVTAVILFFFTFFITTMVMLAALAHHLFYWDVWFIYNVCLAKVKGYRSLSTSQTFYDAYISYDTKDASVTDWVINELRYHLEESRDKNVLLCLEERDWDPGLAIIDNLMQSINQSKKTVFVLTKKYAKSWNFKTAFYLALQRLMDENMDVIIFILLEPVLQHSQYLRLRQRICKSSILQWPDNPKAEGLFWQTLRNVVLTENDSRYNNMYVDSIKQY

[2] = rats
[3] = test system: newborn cord blood mononuclear cells (CBMCs); experiment: Human newborn Th1 polarization assay; assay type: cell-based; details: 10 μM, with αCD3, 96 hrs
Method: Newborn cord blood mononuclear cells (CBMCs), a mixed mononuclear cell culture which is a largely naïve newborn T cell population, were stimulated with the TLR7/8 agonists in the presence of the polyclonal T cell activator αCD3 for 96 hours. T cell polarization was evaluated by IFNγ levels measured in cell-free supernatants by ELISA.

Structure (SMILES) | animals with transient and mild maculopapular rash ([1]; 3M-052- or (PCV13+3M-052)-treated infant animals, co-housed, second enrollment season) | systemic cytokine induction (plasma) ([1]; with or without PCV13, first 63 days of life or 48 hours post (DOL30) a single dose) | agonist activity, human TLR8 (human TLR8) | 3M-052 in serum ([2]; 0.1 mg/kg, up to 24 hours post-dose) | serum 3M-052 peak ([2]; 1 mg/kg, 4 hour peak) | IFNγ production by newborn T cells [3]
CCCCCCCCCCCCCCCCCC(=O)NCCCCOn1c(CCCC)nc2c(N)nc3ccccc3c21 [3M-052, N-[4-[(4-amino-2-butyl-1H-imidazo[4,5-c]quinolin-1-yl)oxy]butyl]octadecanamide] | 3 of the total of 16 | did not induce systemic cytokine induction | Dual agonist activity | not detectable | ~50 pmol/mL | 
CCCCc1nc2c(N)nc3ccccc3c2n1CCO [CRX-649] |  |  |  |  |  | significantly enhanced ability to induce IFNγ production

Source: patent US11464854B2, “Methods and compositions relating to adjuvants” (Children's Medical Center Corporation, priority 2017, dated 2022)
